pIC50, pKd: −log10 of the molar value.
What was measured:
PDHK2 = PDHK2 (Homo sapiens (Human), UniProt Q15119); test: Biochemical activity testing of PDHK2: PDC inactivation assay; conditions: human rec PDHK2, 5 μM ATP, read-out: IC50 PDHK2 (enzyme assay)
Source text: Biochemical Activity Testing of PDHK2: PDC Inactivation Assay
The biochemical activity assay for PDHK2 is based on the inactivation of PDC through phosphorylation by PDHK2. The assay is run in two steps: the enzymatic PDHK2 reaction in which isolated PDC is phosphorylated by PDHK2 with ATP as co-substrate and the PDC activity assay in which pyruvate and NAD are converted to acetyl-CoA and NADH. The PDC activity correlates to the increase in NADH and thereby is detectable directly via the increasing fluorescence signal (Exc 340 nm, Em 450 nm). Inhibition of PDHK2 results in a lower phosphorylation status and thereby a less decrease in activity of PDC and a stronger increase in NADH fluorescence signal.
The PDC inactivation assay is performed in Greiner 384-well microtiter plates and is used for high throughput screen. 4 μl of PDHK2 (human, rec, Carna Bioscience, 10 ng/μl-137 nM final concentration) and PDC (isolated from porcine heart, Sigma-Aldrich, 20 mU/ml final concentration) are incubated in the absence or presence of the test compound (10 dilution concentrations) for 30 min at room temperature in kinase buffer (15 mM potassium phosphate buffer, pH 7.0, 60 mM KCl, 1.5 mM DTT, 2.5 mM MgCl2, 0.0125% (w/v) BSA, 0.125% Pluronic F-68). The kinase reaction is started by the addition of 4 μl ATP substrate solution (fc 5 μM in kinase buffer). After 30 min incubation at 37° C. 40 μl of PDC reaction solution (100 mM Tris/HCl, pH 7.8, 0.5 mM EDTA, 1 mM MgCl2, 50 mM NaF, 0.25 mM Coenzyme A, 5 mM pyruvate, 1 mM NAD, 5 mM DTT, 1 mM thiamine pyrophosphate) is added. The first fluorescence measurement is performed on a Perkin Elmer Envision (Exc 340 nm, Em 450 nm). The reaction is incubated for 45 min at room temperature. Afterwards a second fluorescence measurement is performed and the PDC activity is calculated by the difference between both measurements. As full value for the PDHK2 assay the inhibitor-free PDHK2 reaction is used. The pharmacological zero value used is DCA (Sigma-Aldrich) in a final concentration of 3 mM. The inhibitory values (IC50) were determined using either the program Symyx Assay Explorer® or Condosseo® from GeneData.

human PDHK2 (12-407) = human PDHK2 (12-407) (Homo sapiens (Human), UniProt Q15119); test: Isothermal titration calorimetry (ITC); conditions: 30° C., pH 7.5; read-out: Binding (ITC) KD
Protocol: Isothermal Titration Calorimetry
ITC measurements were performed with a VP-ITC micro calorimeter (Microcal, LLC/GE Healthcare Bio-Sciences AB, Uppsala, Sweden). In general titrations were performed by titrating the protein (50 μM) to the test compound (5 μM) in 12 μl injections. All binding experiments were carried out at 30° C. In general the test compounds were diluted form DMSO stock solutions into the measurement buffer with a maximum final concentration of 1% DMSO. The measurement buffer was 20 mM HEPES, 135 mM KCl, 1 mM TCEP, 2 mM MgCl2, 15 mM NaH2PO4, pH 7.5. The human PDHK2 (12-407) was produced in E. coli as his-tagged protein and purified by affinity chromatography. The tag was removed by side specific proteolysis. Before titration the protein buffer was changed to the measurement buffer containing the same DMSO concentration as the test compound dilution. ITC data analysis was performed using Origin 7 calorimetry software from the same supplier. For most measurements a binding model of one binding site was assumed. According to the applied mathematical model it is possible to calculate the binding constant (KA), the observed binding enthalpy (ΔH^obs) as well as the stoichiometry (N) of the formed complex. Preceding analysis the raw data was corrected for the heats of dilution by extrapolating from the saturation value from the end of titration. In order to allow for direct comparison between the respective experimental series and protein preparations the protein concentration was corrected by referencing titrations to a well behaved standard inhibitor. The apparent stoichiometry values defined the fraction of binding competent protein and compensated for relative errors in protein concentration measurements. This corrected protein concentration was used to set up ITC experiment series with test compounds. Any deviations from ideal 1:1 stoichiometry observed here were attributed to errors in compound concentration. This nominal compound concentration was corrected as well to achieve 1:1 stoichiometry in the fit.

[1] = system: PDH-E1alpha (pSer300) in HEK293T cells; test: Cellular immunofluorescence assay (Anti-PDH-E1alpha (pSer300)) in HEK293T cells; type: cell-based; conditions: Homo sapiens, HEK-293T, 5 hours incubation, read-out: IC50 (cell data)
Protocol: Cellular Assay for Determination of Compound Activities
Compound activities were determined in a cellular immunofluorescence assay.
Human HEK293T cells were seeded into black 384-well plates with clear bottom and grown overnight.
Next day, test compounds were added to the wells and the plates incubated for 5 hours. Following this, cells were fixed with formaldehyde, permeabilised and blocked. The primary antibody, Anti-PDH-E1alpha (pSer300), AP1064 (Merck Millipore) was added and incubated overnight in the plate wells. Next, cells were washed and the secondary antibody, Alexa Fluor 488, goat anti-rabbit ab (A-11008, Invitrogen) was added together with Hoechst 33258 (H3569, Invitrogen) and incubated for 1 hour in the plate wells. Finally, cells were washed and the plates were measured on the laser scanning cytometer acumen hci (TTpLabtech).
The raw data were normalized against a pharmacological inhibitor control and dose response curves were generated by plotting the percent effect values using the software package Genedata screener (Genedata).

SMILES: Cc1ccc(C(=O)N(C)C2CCN(C(=O)[C@@](C)(O)C(F)(F)F)CC2)c(F)c1 [Compound A18, 2-Fluoro-4,N-dimethyl-N-{1-[(R)-3,3,3-trifluoro-2-hydroxy-2-methyl-propionyl]-piperidin-4-yl}-benzamide]
- pIC50 (PDHK2): 6.59
- pKd (human PDHK2 (12-407)): 7.16
- pIC50 [1]: 6.15

SMILES: Cc1ccc(N(C)C(=O)[C@H]2CCN(C(=O)[C@@](C)(O)C(F)(F)F)C[C@H]2C)c(F)c1 [Compound A13, (3S,4S)—N-(2-fluoro-4-methylphenyl)-N,3-dimethyl-1-[(2R)-3,3,3-trifluoro-2-hydroxy-2-methylpropanoyl]piperidine-4-carboxamide]
- pIC50 (PDHK2): 6.92
- pKd (human PDHK2 (12-407)): 7.85
- pIC50 [1]: 7.15

SMILES: CN(C(=O)c1ccc(Cl)cc1)C1CCN(C(=O)[C@@](C)(O)C(F)(F)F)CC1 [Compound A16, 4-Chloro-N-methyl-N-{1-[(2R)-3,3,3-trifluoro-2-hydroxy-2-methylpropanoyl]piperidin-4-yl}benzamide]
- pIC50 (PDHK2): 6.41
- pKd (human PDHK2 (12-407)): 6.81
- pIC50 [1]: 5.82

SMILES: Cc1ccc(N(C)C(=O)C2CCN(C(=O)[C@@](C)(O)C(F)(F)F)CC2)c(F)c1 [Compound A2, 1-((R)-3,3,3-Trifluoro-2-hydroxy-2-methyl-propionyl)-piperidine-4-carboxylic acid (2-fluoro-4-methyl-phenyl)-methyl-amide]
- pIC50 (PDHK2): 6.70
- pKd (human PDHK2 (12-407)): 7.05
- pIC50 [1]: 5.59

SMILES: COc1ccc(C(=O)N(C)[C@H]2CCN(C(=O)[C@@](C)(O)C(F)(F)F)C[C@H]2C)cc1 [Compound A35, 4-Methoxy-N-methyl-N-[(3R,4S)-3-methyl-1-[(2R)-3,3,3-trifluoro-2-hydroxy-2-methylpropanoyl]piperidin-4-yl]benzamide]
- pIC50 (PDHK2): 6.51
- pKd (human PDHK2 (12-407)): 7.43
- pIC50 [1]: 7.48

SMILES: C[C@@H]1CN(C(=O)[C@@](C)(O)C(F)(F)F)CC[C@@H]1N(C)C(=O)c1ccc(C#N)cc1 [Compound A44, 4-Cyano-N-methyl-N-[(3R,4S)-3-methyl-1-[(2R)-3,3,3-trifluoro-2-hydroxy-2-methylpropanoyl]piperidin-4-yl]benzamide]
- pIC50 (PDHK2): 6.52
- pKd (human PDHK2 (12-407)): 7.28
- pIC50 [1]: 6.46

SMILES: Cc1ccc(C(=O)N(C(C)C)C2CCN(C(=O)[C@@](C)(O)C(F)(F)F)CC2)c(F)c1 [Compound A65, 2-Fluoro-N-isopropyl-4-methyl-N-[1-((R)-3,3,3-trifluoro-2-hydroxy-2-methyl-propionyl)-piperidin-4-yl]-benzamide]
- pIC50 (PDHK2): 5.89
- pKd (human PDHK2 (12-407)): 6.85
- pIC50 [1]: 6.23

SMILES: C[C@@H]1CN(C(=O)[C@@](C)(O)C(F)(F)F)CC[C@@H]1N(C)C(=O)c1cnn(C)c1 [Compound A56, N,1-Dimethyl-N-[(3R,4S)-3-methyl-1-[(2R)-3,3,3-trifluoro-2-hydroxy-2-methylpropanoyl]piperidin-4-yl]-1H-pyrazole-4-carboxamide]
- pIC50 (PDHK2): 6.64
- pKd (human PDHK2 (12-407)): 6.89
- pIC50 [1]: 6.04

SMILES: C[C@@H]1CN(C(=O)[C@@](C)(O)C(F)(F)F)CC[C@@H]1N(C)C(=O)c1ccccc1 [Compound A32, N-Methyl-N-[(3R,4S)-3-methyl-1-[(2R)-3,3,3-trifluoro-2-hydroxy-2-methylpropanoyl]piperidin-4-yl]benzamide]
- pIC50 (PDHK2): 6.15
- pKd (human PDHK2 (12-407)): 7.34
- pIC50 [1]: 6.85

SMILES: CC(C)N(C(=O)c1ccc(C#N)cc1)C1CCN(C(=O)[C@@](C)(O)C(F)(F)F)CC1 [Compound A67, 4-Cyano-N-isopropyl-N-[1-((R)-3,3,3-trifluoro-2-hydroxy-2-methyl-propionyl)-piperidin-4-yl]-benzamide]
- pIC50 (PDHK2): 5.80
- pKd (human PDHK2 (12-407)): 6.33
- pIC50 [1]: 5.39

SMILES: C[C@@H]1CN(C(=O)[C@@](C)(O)C(F)(F)F)CC[C@@H]1N(C)C(=O)c1ccc(Cl)cc1 [Compound A21, 4-Chloro-N-methyl-N-[(3R,4S)-3-methyl-1-[(2R)-3,3,3-trifluoro-2-hydroxy-2-methylpropanoyl]piperidin-4-yl]benzamide]
- pIC50 (PDHK2): 6.59
- pKd (human PDHK2 (12-407)): 7.24
- pIC50 [1]: 6.80

SMILES: C[C@@H]1CN(C(=O)[C@@](C)(O)C(F)(F)F)CC[C@@H]1N(C)C(=O)c1ncc(F)cc1F [Compound A41, 3,5-Difluoro-N-methyl-N-[(3R,4S)-3-methyl-1-[(2R)-3,3,3-trifluoro-2-hydroxy-2-methylpropanoyl]piperidin-4-yl]pyridine-2-carboxamide]
- pIC50 (PDHK2): 6.62
- pKd (human PDHK2 (12-407)): 7.18
- pIC50 [1]: 6.74

SMILES: CN(C(=O)c1ccc(C(F)(F)F)cc1Cl)C1CCN(C(=O)[C@@](C)(O)C(F)(F)F)CC1 [Compound A19, 2-Chloro-N-methyl-N-{1-[(2R)-3,3,3-trifluoro-2-hydroxy-2-methylpropanoyl]piperidin-4-yl}-4-(trifluoromethyl)benzamide]
- pIC50 (PDHK2): 6.26
- pKd (human PDHK2 (12-407)): 7.28
- pIC50 [1]: 6.28

SMILES: C[C@@H]1CN(C(=O)[C@@](C)(O)C(F)(F)F)CC[C@@H]1N(C)C(=O)c1ccc(C(F)(F)F)cc1 [Compound A62, N-Methyl-N-[(3R,4S)-3-methyl-1-[(2R)-3,3,3-trifluoro-2-hydroxy-2-methylpropanoyl]piperidin-4-yl]-4-(trifluoromethyl)benzamide]
- pIC50 (PDHK2): 6.54
- pKd (human PDHK2 (12-407)): 7.36
- pIC50 [1]: 6.54

SMILES: C[C@@H]1CN(C(=O)[C@@](C)(O)C(F)(F)F)CC[C@@H]1N(C)C(=O)c1ccc(Cl)cc1F [Compound A59, 4-Chloro-2-fluoro-N-methyl-N-[(3R,4S)-3-methyl-1-[(2R)-3,3,3-trifluoro-2-hydroxy-2-methylpropanoyl]piperidin-4-yl]benzamide]
- pIC50 (PDHK2): 7.01
- pKd (human PDHK2 (12-407)): 7.70
- pIC50 [1]: 7.28

SMILES: C[C@@H]1CN(C(=O)[C@@](C)(O)C(F)(F)F)CC[C@@H]1N(C)C(=O)c1ccc(C(F)(F)F)cc1F [Compound A47, 2-Fluoro-N-methyl-N-[(3R,4S)-3-methyl-1-[(2R)-3,3,3-trifluoro-2-hydroxy-2-methylpropanoyl]piperidin-4-yl]-4-(trifluoromethyl)benzamide]
- pIC50 (PDHK2): 6.64
- pKd (human PDHK2 (12-407)): 7.46
- pIC50 [1]: 6.72

SMILES: Cc1ccc(N(C)C(=O)C2CCN(C(=O)[C@@](C)(O)C(F)(F)F)CC2C)c(F)c1 (stereo partly drawn) [Compound A12, N-(2-fluoro-4-methylphenyl)-N,3-dimethyl-1-[(2R)-3,3,3-trifluoro-2-hydroxy-2-methylpropanoyl]piperidine-4-carboxamide]
- pIC50 (PDHK2): 6.70
- pIC50 [1]: 6.72

— patent US10428024B2, “Piperidinyl derivatives” (MERCK PATENT GMBH, priority 2016, dated 2019)
